Legend:
[1] = tested on: chronic primary insomnia patients with sleep maintenance difficulties; test: Phase III study of doxepin, 8-hour PSG efficacy variables (WASO, TST, SE, LPS); conditions: ITT
Excerpt: (§1) Patients with at least a 3-month history of primary insomnia, according to Diagnostic and Statistical Manual of Mental Disorders, Fourth Edition Text Revision (DSM-IV-TR)-defined primary insomnia were enrolled.
Patients were screened (Visit 1) to determine study eligibility and asked to discontinue any protocol-disallowed prescription or over-the-counter (OTC) medications used as sleep medication. At the beginning of the first week (polysomnography [PSG] Screening, Visit 2), eligible patients began two weeks of single-blind placebo dosing and had two consecutive nights of 8-hour PSG recording in the sleep center. Patients were required to meet the PSG screening criteria to remain eligible for the study. Patients were allowed to leave the sleep center during the day after the PSG Screening nights and continued to take single-blind placebo after PSG Screening (Visit 2) for five consecutive nights at home.
Patients were allowed to leave the sleep center during the day after the PSG nights and continued taking single-blind placebo for five consecutive nights at home.
(§2) After the PSG Screening and Baseline periods, patients began a 35-day double-blind treatment period during which they were given study drug supplies at each scheduled visit (Visits 4, 5, and 6). The scheduled study visits consisted of two consecutive nights of 8-hour PSG recording in the sleep center and next day assessments to assess sedative efficacy. Patients were asked to complete hangover/residual effects assessments, morning and evening questionnaires, and the Benzodiazepine Withdrawal Symptom Questionnaire (BWSQ) at each of these visits.
Primary Efficacy: The primary efficacy variable was wake after sleep onset (WASO) obtained on Night 1 as determined by PSG recordings using the ITT analysis set.
Additional PSG efficacy variables: Additional efficacy variables obtained on the first PSG assessment nights (Nights 1 and 29) included WASO (Night 29), wake time during sleep (WTDS), total sleep time (TST), sleep efficiency (SE), including whole night, third of the night, and by hour, and latency to persistent sleep (LPS), latency to Stage 2 sleep, number of awakenings after sleep onset (NAASO), total wake time (TWT), wake time after sleep (WTAS), and, sleep architecture including percentage and minutes of Stage 1, 2, and 3/4 non-rapid eye movement (NREM) sleep, percentage and minutes of rapid eye movement (REM) sleep, and latency to REM sleep.
(§3) Methods used to analyze other endpoints were the same as those used to analyze WASO. For LPS, latency to REM sleep, latency to Stage 2 sleep, and LSO, data were expected to be log-normally distributed and were analyzed using log-transformed values (base 10). The safety data were analyzed primarily using descriptive statistical methods.
(§4) All efficacy analyses were performed on the Intent-to-treat (ITT) analysis set. […] Data were analyzed as randomized and based on observed cases.

[2] = tested on: chronic primary insomnia patients with sleep maintenance difficulties; test: Phase III study of doxepin, subjective assessments by morning questionnaire (sWASO, LSO, sTST); conditions: ITT; for LSO (subjective latency to sleep onset), Mean (SD) / sTST (subjective total sleep time), Mean (SD) / sTST, Median / sWASO (subjective wake after sleep onset), Mean (SD): Baseline (mean of Days −5 and −4)
Excerpt: as §1, §2
Subjective Variables: Subjective assessments included data obtained on Days 2, 16, and 30, and included subjective TST (sTST), subjective WASO (sWASO), latency to sleep onset (LSO), subjective NAASO (sNAASO), and sleep quality (all assessed by a morning questionnaire), daytime functioning (assessed by an evening questionnaire), average nightly sTST during at-home administration (5 days before the PSG visit), CGI rating scale for Severity and Therapeutic Effect completed by the clinician and patient, and a measure of insomnia severity (assessed by ISI).
as §3, §4

[3] = doxepin 3 mg, Night 15, p 0.1977 vs placebo
[4] = doxepin 3 mg, Night 29, p 0.0262 vs placebo
[5] = doxepin 6 mg, Night 1, p<0.0001 vs placebo
[6] = doxepin 6 mg, Night 15, p 0.0157 vs placebo
[7] = doxepin 6 mg, Night 29, p 0.0003 vs placebo

Compound: CN(C)CCC=C1c2ccccc2COc2ccccc21 [Doxepin, 11-(3-dimethylaminopropylidene)-6,11-dihydrodibenzo (b,e)oxepin]
- SE (8-hour PSG), Mean (SD) [1, 3]: 83.7 (10.12) %
- TST (8-hour PSG), Mean (SD) [1, 3]: 401.7 (48.56) minutes
- LPS (PSG), Mean (SD) ([1]; doxepin 3 mg, Night 15, p 0.3644 vs placebo): 38.2 (40.52) minutes
- SE (8-hour PSG), Mean (SD) [1, 4]: 85.0 (10.92) %
- TST (8-hour PSG), Mean (SD) [1, 4]: 408.1 (52.41) minutes
- 8-hour WASO, Mean (SD) ([1]; doxepin 3 mg, Night 29, p 0.0299 vs placebo): 47.3 (43.53) minutes
- SE - Hour 8 (PSG), Mean (SD) ([1]; doxepin 3 mg, Night 29, p 0.0524 vs placebo): 81.9 (20.81) %
- LPS (PSG), Mean (SD) ([1]; doxepin 3 mg, Night 29, p 0.9008 vs placebo): 28.0 (25.99) minutes
- 8-hour WASO, Mean (SD) ([1]; doxepin 6 mg group, Baseline (single-blind placebo)): 65.0 (33.23) minutes
- LPS (latency to persistent sleep, PSG), Mean (SD) ([1]; doxepin 6 mg group, Baseline): 39.1 (34.10) minutes
- SE - Hour 8 (PSG), Mean (SD) ([1]; doxepin 6 mg group, Baseline): 76.4 (21.26) %
- TST (8-hour PSG), Mean (SD) ([1]; doxepin 6 mg group, Baseline): 380.3 (43.09) minutes
- 8-hour WASO, Mean (SD) ([1]; doxepin 6 mg, Night 1 (primary), p<0.0001 vs placebo): 36.3 (26.14) minutes
- SE (8-hour PSG), Mean (SD) [1, 5]: 87.6 (7.72) %
- SE - Hour 8 (PSG), Mean (SD) [1, 5]: 88.4 (14.25) %
- TST (8-hour PSG), Mean (SD) [1, 5]: 420.5 (37.07) minutes
- 8-hour WASO, Mean (SD) ([1]; doxepin 6 mg, Night 15, p 0.0023 vs placebo): 41.9 (29.67) minutes
- SE (8-hour PSG), Mean (SD) [1, 6]: 85.7 (10.70) %
- TST (8-hour PSG), Mean (SD) [1, 6]: 411.3 (51.34) minutes
- LPS (PSG), Mean (SD) ([1]; doxepin 6 mg, Night 15, p 0.8315 vs placebo): 31.8 (36.57) minutes
- SE (8-hour PSG), Mean (SD) [1, 7]: 87.3 (9.37) %
- TST (8-hour PSG), Mean (SD) [1, 7]: 419.1 (44.98) minutes
- 8-hour WASO, Mean (SD) ([1]; doxepin 6 mg, Night 29, p 0.0012 vs placebo): 41.2 (37.91) minutes
- SE - Hour 8 (PSG), Mean (SD) ([1]; doxepin 6 mg, Night 29, p 0.0034 vs placebo): 85.8 (19.66) %
- LPS (PSG), Mean (SD) ([1]; doxepin 6 mg, Night 29, p 0.9989 vs placebo): 24.7 (21.48) minutes
- LSO (subjective latency to sleep onset), Mean (SD) ([2]; Doxepin HCl 3 mg group): 61.4 (39.43) minutes
- sTST (subjective total sleep time), Mean (SD) ([2]; Doxepin HCl 3 mg group): 330.0 (63.23) minutes
- sTST, Median ([2]; Doxepin HCl 3 mg group): 330.0 min
- sTST, Mean (SD) ([2]; Doxepin HCl 3 mg, Visit 4, Day 2, p 0.0169 vs placebo): 361.8 (64.03) minutes
- LSO, Mean (SD) ([2]; Doxepin HCl 3 mg, Visit 4, Day 2, p 0.2296 vs placebo): 50.3 (36.73) minutes
- sTST, Mean (SD) ([2]; Doxepin HCl 3 mg, Visit 5, Day 16, p 0.3260 vs placebo): 361.0 (67.22) minutes
- LSO, Mean (SD) ([2]; Doxepin HCl 3 mg, Visit 5, Day 16, p 0.9838 vs placebo): 52.9 (35.17) minutes
- LSO, Mean (SD) ([2]; Doxepin HCl 3 mg, Visit 6, Day 30, p 0.3567 vs placebo): 48.9 (34.71) minutes
- sTST, Mean (SD) ([2]; Doxepin HCl 3 mg, Visit 6, Day 30, p 0.9972 vs placebo): 360.7 (68.72) minutes
- LSO (subjective latency to sleep onset), Mean (SD) ([2]; Doxepin HCl 6 mg group): 64.0 (43.45) minutes
- sTST (subjective total sleep time), Mean (SD) ([2]; Doxepin HCl 6 mg group): 339.3 (61.45) minutes
- sTST, Median ([2]; Doxepin HCl 6 mg group): 330.0 min
- sTST, Mean (SD) ([2]; Doxepin HCl 6 mg, Visit 4, Day 2, p 0.0256 vs placebo): 369.0 (78.39) minutes
- LSO, Mean (SD) ([2]; Doxepin HCl 6 mg, Visit 4, Day 2, p 0.0960 vs placebo): 55.7 (56.96) minutes
- sTST, Mean (SD) ([2]; Doxepin HCl 6 mg, Visit 5, Day 16, p 0.1611 vs placebo): 371.5 (72.06) minutes
- LSO, Mean (SD) ([2]; Doxepin HCl 6 mg, Visit 5, Day 16, p 0.2689 vs placebo): 48.7 (42.35) minutes
- sTST, Mean (SD) ([2]; Doxepin HCl 6 mg, Visit 6, Day 30, p 0.6831 vs placebo): 373.0 (75.30) minutes
- LSO, Mean (SD) ([2]; Doxepin HCl 6 mg, Visit 6, Day 30, p 0.8242 vs placebo): 48.3 (47.40) minutes
- sWASO (subjective wake after sleep onset), Mean (SD) ([2]; doxepin 3 mg group): 80.6 (48.12) minutes
- sWASO, Mean (SD) ([2]; doxepin 3 mg, Visit 4, Day 2, p 0.0005 vs placebo): 55.7 (39.81) minutes
- sWASO, Mean (SD) ([2]; doxepin 3 mg, Visit 5, Day 16, p 0.2582 vs placebo): 59.0 (54.14) minutes
- sWASO, Mean (SD) ([2]; doxepin 3 mg, Visit 6, Day 30, p 0.8958 vs placebo): 63.1 (47.24) minutes
- sWASO (subjective wake after sleep onset), Mean (SD) ([2]; doxepin 6 mg group): 78.2 (43.06) minutes
- sWASO, Mean (SD) ([2]; doxepin 6 mg, Visit 4, Day 2, p 0.0007 vs placebo): 54.9 (44.76) minutes
- sWASO, Mean (SD) ([2]; doxepin 6 mg, Visit 5, Day 16, p 0.3357 vs placebo): 58.4 (49.09) minutes
- sWASO, Mean (SD) ([2]; doxepin 6 mg, Visit 6, Day 30, p 0.8020 vs placebo): 58.2 (53.07) minutes

Reference: patent US20130150434A1 (SOMAXON PHARMACEUTICALS, INC., priority 2006, published 2013)
